Assay results: patent US8268848B2, “Cyclopropane compound” (Eisai R&D Management Co., Ltd., priority 2010, dated 2012)
Read-outs that look alike come from different tables or passages of the source.

Legend:
OX1 [1] = biological target: T1, OX1 (Homo sapiens, UniProt O43613); assay: Measurement of orexin receptor-binding ability ([125I]-OX-A, cell membranes, OX1); design: expressed in transfected cells; host or cells: CHO cells (membrane preparation)
T1 sequence (O43613 1-425): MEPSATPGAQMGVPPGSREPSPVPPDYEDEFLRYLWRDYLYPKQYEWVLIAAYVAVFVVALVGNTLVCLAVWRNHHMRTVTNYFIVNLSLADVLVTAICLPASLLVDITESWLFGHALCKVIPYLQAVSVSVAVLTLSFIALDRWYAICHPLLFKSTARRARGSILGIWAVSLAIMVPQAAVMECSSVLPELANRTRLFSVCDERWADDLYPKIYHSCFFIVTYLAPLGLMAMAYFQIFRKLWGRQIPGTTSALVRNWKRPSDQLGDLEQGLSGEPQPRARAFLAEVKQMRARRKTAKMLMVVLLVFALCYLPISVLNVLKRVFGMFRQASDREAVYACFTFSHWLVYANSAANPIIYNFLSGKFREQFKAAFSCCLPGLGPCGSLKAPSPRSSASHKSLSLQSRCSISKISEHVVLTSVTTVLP

OX2 [2] = biological target: T2, OX2 (Homo sapiens, UniProt O43614); assay: Measurement of antagonism (PLAP assay), OX2; type: cell-based; design: expressed in transfected cells; host or cells: HEK-293 cells, expression vector pBabeCLIH
T2 sequence (O43614 1-444): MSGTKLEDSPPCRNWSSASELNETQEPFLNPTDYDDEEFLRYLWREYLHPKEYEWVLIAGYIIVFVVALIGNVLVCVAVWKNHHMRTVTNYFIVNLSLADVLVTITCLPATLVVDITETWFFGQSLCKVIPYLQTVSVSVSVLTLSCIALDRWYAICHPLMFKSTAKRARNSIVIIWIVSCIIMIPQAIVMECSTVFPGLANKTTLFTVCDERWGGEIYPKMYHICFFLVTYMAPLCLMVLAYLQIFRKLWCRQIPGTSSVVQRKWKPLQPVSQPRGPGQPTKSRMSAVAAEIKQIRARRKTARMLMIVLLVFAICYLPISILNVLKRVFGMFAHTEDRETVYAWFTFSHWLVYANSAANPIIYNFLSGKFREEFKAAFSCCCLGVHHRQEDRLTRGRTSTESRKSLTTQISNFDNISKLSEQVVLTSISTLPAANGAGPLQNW
Procedure: (§1) 2. Measurement of Antagonism (PLAP Assay)
(§2) The antagonistic function of the compound of the present invention to prevent the activation of OX2 and OX1 by orexin-A (OX-A), which is a natural peptide agonist, was measured using a cell-based reporter assay. […] The cells were plated at a density of 10,000 cells/well onto a non-coated 96-well plate in Dulbecco's modified Eagle medium (Sigma Cat No. D6046:10% v/v heat-inactivated fetal bovine serum was contained). The cells were cultured at 37° C. overnight, so that they could adhere to the plate. On the following day, cells were incubated with a compound of the present invention dissolved in Dulbecco's modified Eagle medium (Sigma Cat No. A8806:0.1% w/v bovine serum albumin was contained), and added to the cell plate to reach a final concentration of 0.1% dimethyl sulfoxide.
(§3) The thus obtained mixture was incubated at room temperature for 1 hour. Thereafter, human OX-A and forskolin were dissolved in the same medium as described above, which contained fetal bovine serum albumin, and the medium was then added to the cells, resulting in a final concentration of 300 nM forskolin. Subsequently, the cells were cultured at 37° C. for approximately 18 to 24 hours.

OX2 [3] = biological target: T2, OX2; assay: Measurement of orexin receptor-binding ability ([125I]-OX-A, cell membranes, OX2); design: expressed in transfected cells; host or cells: CHO cells (membrane preparation); settings: membranes of recombinant CHO cells expressing OX2, 0.2 nM [125I]-OX-A
mice (C57BL/6NCrlCrLj) = assay: Sleep experiment (EEG/EMG) in mice; type: in vivo; settings: for minimum effective dose (MED): oral, doses 0.3 to 100 mg/kg, accumulated sleep time within three hours after administration
Procedure: As a method for measuring the influence of the present compound on sleep time, electroencephalogram (EEG) and electromyogram (EMG) measurements were carried out in mice (C57BL/6NCrlCrLj).
In order to measure brain waves and muscle signals, EEG and EMG electrode implantation was performed on individual mice, and the mice were then housed in a state in which they could freely move and habituate in individual recording cages for 1 week or longer. Thereafter, amplified EEG and EMG signals were digitally recorded.
Mice received either oral administration of vehicle or test compound in vehicle, after which sleep/wake behavior of mice was recorded for 3 hours.
For sleep analysis, automatic analysis software from Kissei Comtec Co., Ltd. was used to analyze EEG frequency and EMG activity signals in detail and to determine sleep and wake states. Thereafter, accumulated sleeping time over 3 hours was calculated.
The effect of the compound to increase sleep time was evaluated as the difference between sleeping time on the vehicle-administration day and the sleep time on the subsequent drug-administration day.
The minimum effective dose (MED; mg/kg) was obtained from accumulated sleep time of mice with three hours after the administration.

OX1 [4] = biological target: T1, OX1; assay: Measurement of antagonism (PLAP assay), OX1; type: cell-based; design: expressed in transfected cells; host or cells: HEK-293 cells, expression vector pBabeCLIH
Procedure: as §1, §2, §3

[5] = mice, oral administration, difference to vehicle day, 3 hours
[6] = membranes of recombinant CHO cells expressing OX1, 0.2 nM [125I]-OX-A, read-out: OX1 (IC50)
[7] = HEK-293 cells expressing human OX2, 1 nM human OX-A, IC50 converted by Cheng-Prusoff equation, read-out: OX2 (Ki)
[8] = HEK-293 cells expressing human OX1, 1 nM human OX-A, IC50 converted by Cheng-Prusoff equation, read-out: OX1 (Ki)

SMILES	IC50 (OX1 [1]; [6]) [nM]	Ki (OX2 [2]; [7]) [nM]	IC50 (OX2 [3]; read-out: OX2 (IC50)) [nM]	Ki (OX1 [4]; [8]) [nM]	further results
Cc1ncc(OC[C@@]2(c3ccccc3)C[C@H]2C(=O)Nc2cc(C)c(F)cn2)c(C)n1 [Example 51, (1R,2S)-2-{[(2,4-dimethylpyrimidin-5-yl)oxy]methyl}-N-(5-fluoro-4-methylpyridin-2-yl)-2-phenylcyclopropanecarboxamide]	–	–	–	–	IC50 (OX1 [1]): 6.4 nM; Ki (OX2 [2]): 1.2 nM; IC50 (OX2 [3]; OX2 (IC50) nM): 3.9 nM; Sleep extended time 10 mg/kg (min/3 hrs) (mice (C57BL/6NCrlCrLj); [5]): 23.6 min/3 hrs; minimum effective dose (MED) (mice (C57BL/6NCrlCrLj); mice): 3 mg/kg; Ki (OX1 [4]): 29 nM
Cc1ncc(OC[C@@]2(c3ccccc3)C[C@H]2C(=O)Nc2cccnc2)c(C)n1 [Example 66]	398	34	50	> 667	–
Cc1ncc(OC[C@@]2(c3ccccc3)C[C@H]2C(=O)Nc2ccccn2)c(C)n1 [Example 65]	1030	–	–	> 667	Ki (OX2 [2]): 60 nM; IC50 (OX2 [3]; OX2 (IC50) nM): 81 nM
Cc1ncc(OC[C@@]2(c3ccccc3)C[C@H]2C(=O)Nc2cc(C)c(Cl)cn2)c(C)n1 [Example 45, (1R,2S)-N-(5-chloro-4-methylpyridin-2-yl)-2-{[(2,4-dimethylpyrimidin-5-yl)oxy]methyl}-2-phenylcyclopropanecarboxamide]	13.9	0.45	6.2	19	Sleep extended time 10 mg/kg (min/3 hrs) (mice (C57BL/6NCrlCrLj); po, 3 h): 15.2 min/3 hrs
Cc1ncc(OC[C@@]2(c3ccccc3)C[C@H]2C(=O)Nc2ccc(F)c(C#N)c2)c(C)n1 [Example 26, (1R,2S)-N-(3-cyano-4-fluorophenyl)-2-{[(2,4-dimethylpyrimidin-5-yl)oxy]methyl}-2-phenylcyclopropanecarboxamide]	20	0.4	3.7	27	–
COc1cc(NC(=O)[C@@H]2C[C@@]2(COc2cnc(C)nc2C)c2ccccc2)ncc1F [Example 73, (1R,2S)-2-{[(2,4-dimethylpyrimidin-5-yl)oxy]methyl}-N-(5-fluoro-4-methoxypyridin-2-yl)-2-phenylcyclopropanecarboxamide]	3.4	–	5.7	–	Sleep extended time 10 mg/kg (min/3 hrs) (mice (C57BL/6NCrlCrLj); po, 3 h): 22.7 min/3 hrs
Cc1ncc(OC[C@@]2(c3cccc(F)c3)C[C@H]2C(=O)Nc2ccc(C#N)cn2)c(C)n1 [Example 96, (1R,2S)-N-(5-cyanopyridin-2-yl)-2-{[(2,4-dimethylpyrimidin-5-yl)oxy]methyl}-2-(3-fluorophenyl)cyclopropanecarboxamide]	–	–	–	–	IC50 (OX1 [1]): 32 nM; IC50 (OX2 [3]; OX2 (IC50) nM): 5 nM; Sleep extended time 10 mg/kg (min/3 hrs) (mice (C57BL/6NCrlCrLj); [5]): 12.1 min/3 hrs
Cc1ncc(OC[C@@]2(c3ccc(F)cc3)C[C@H]2C(=O)Nc2ccc(F)cc2)c(C)n1 [Example 105, (1R,2S)-N,2-bis(4-fluorophenyl)-2-{[(2,4-dimethylpyrimidin-5-yl)oxy]methyl}-N,2-bis(4-fluorophenyl)cyclopropanecarboxamide]	–	–	–	–	IC50 (OX1 [1]): 195 nM; IC50 (OX2 [3]; OX2 (IC50) nM): 18 nM; Sleep extended time 10 mg/kg (min/3 hrs) (mice (C57BL/6NCrlCrLj); [5]): 14.3 min/3 hrs
COCc1nc(C)ncc1OC[C@@]1(c2cccc(F)c2)C[C@H]1C(=O)Nc1cc(C)c(F)cn1 [Example 199, (1R,2S)-N-(5-fluoro-4-methylpyridin-2-yl)-2-(3-fluorophenyl)-2-{[(4-methoxymethyl-2-methylpyrimidin-5-yl)oxy]methyl}cyclopropanecarboxamide]	2	–	2	–	Sleep extended time 10 mg/kg (min/3 hrs) (mice (C57BL/6NCrlCrLj); po, 3 h): 36.2 min/3 hrs
Cc1ncc(OC[C@@]2(c3cccc(F)c3)C[C@H]2C(=O)Nc2ccc(F)cn2)c(C)n1 [Example 95, (1R,2S)-2-{[(2,4-dimethylpyrimidin-5-yl)oxy]methyl}-2-(3-fluorophenyl)-N-(5-fluoropyridin-2-yl)cyclopropanecarboxamide]	–	–	–	–	IC50 (OX1 [1]): 13.4 nM; Sleep extended time 10 mg/kg (min/3 hrs) (mice (C57BL/6NCrlCrLj); [5]): 39.8 min/3 hrs; minimum effective dose (MED) (mice (C57BL/6NCrlCrLj); mice): ≤ 1 mg/kg; Ki (OX1 [4]): 9.9 nM
Cc1ncc(OC[C@@]2(c3ccccc3)C[C@H]2C(=O)Nc2ccncc2)c(C)n1 [Example 67]	–	–	–	–	Ki (OX2 [2]): 57 nM; Ki (OX1 [4]): > 667 nM
Cc1ncc(OC[C@@]2(c3ccccc3)C[C@H]2C(=O)Nc2ccccc2)c(C)n1 [Example 64]	74	6.3	15	133	–
COCc1nc(C)ncc1OC[C@@]1(c2cccc(F)c2)C[C@H]1C(=O)Nc1ccc(F)cn1 [Example 191, (1R,2S)-2-(3-fluorophenyl)-N-(5-fluoropyridin-2-yl)-2-[(4-methoxymethyl-2-methylpyrimidin-5-yl)oxymethyl]cyclopropanecarboxamide]	–	–	–	–	IC50 (OX1 [1]): 1 nM; IC50 (OX2 [3]; OX2 (IC50) nM): 1 nM; Sleep extended time 10 mg/kg (min/3 hrs) (mice (C57BL/6NCrlCrLj); [5]): 41.8 min/3 hrs
COc1cncc(NC(=O)[C@@H]2C[C@@]2(COc2cnc(C)nc2C)c2ccccc2)c1 [Example 61]	874	26	16	> 667	–
COCc1nc(C)ncc1OC[C@@]1(c2ccccc2)C[C@H]1C(=O)Nc1ccc(F)cn1 [Example 141, (1R,2S)-N-(5-fluoropyridin-2-yl)-2-{[(4-(methoxymethyl)-2-methylpyrimidin-5-yl)oxy]methyl}-2-phenylcyclopropanecarboxamide]	9	–	1.3	–	Sleep extended time 10 mg/kg (min/3 hrs) (mice (C57BL/6NCrlCrLj); po, 3 h): 28.7 min/3 hrs
Cc1ncc(OC[C@@]2(c3cc(F)cc(F)c3)C[C@H]2C(=O)Nc2ccc(F)cc2)c(C)n1 [Example 130, (1R,2S)-2-(3,5-difluorophenyl)-2-{[(2,4-dimethylpyrimidin-5-yl)oxy]methyl}-N-(4-fluorophenyl)cyclopropanecarboxamide]	22	–	4	–	Sleep extended time 10 mg/kg (min/3 hrs) (mice (C57BL/6NCrlCrLj); po, 3 h): 24.2 min/3 hrs
COCc1nc(C)ncc1OC[C@@]1(c2ccccc2)C[C@H]1C(=O)Nc1ccc(Cl)cn1 [Example 139, (1R,2S)-N-(5-chloropyridin-2-yl)-2-{[(4-(methoxymethyl)-2-methylpyrimidin-5-yl)oxy]methyl}-2-phenylcyclopropanecarboxamide]	22	1.7	3.3	113	–
